Patent US12440492B2, “Pharmaceutical compositions comprising AKT protein kinase inhibitors” (Genentech, Inc., priority 2016, dated 2025)
Structures can show the parent of a compound that is named as a salt.

Columns and labels:
Format in all cases: physicochemical
[1] = Solid state by X-ray powder diffraction; conditions: * indicates absence of crystalline API; monohydrochloride
Source text: Bragg's law describes the diffraction of crystalline material with the equation “2d·sin(theta)=n·lambda”, wherein “d” denotes perpendicular distance (in Angstroms) between pairs of adjacent planes in a crystal (“d-spacing”), “theta” denotes the Bragg angle, “lambda” denotes the wavelength and “n” is an integer. When Bragg's law is fulfilled, the reflected beams are in phase and interfere constructively so that Bragg diffraction peaks are observed in the X-ray diffraction pattern. At angles of incidence other than the Bragg angle, reflected beams are out of phase and destructive interference or cancellation occurs. […] The XRPD pattern of an amorphous material is further characterized by one or more amorphous halos.
The term “XRPD” denotes the analytical method of X-Ray Powder Diffraction. The repeatability of the angular values is in the range of 2Theta±0.2°, more particularly in the range of 2Theta±0.1°. The term “approximately” given in combination with an angular value denotes the variance which is in the range of 2Theta±0.2°, particularly in the range of 2Theta±0.1°. The relative XRPD peak intensity is dependent upon many factors such as structure factor, temperature factor, crystallinity, polarization factor, multiplicity, and Lorentz factor. Relative intensities may vary considerably from one measurement to another due to preferred orientation effects. According to USP 941 (US Pharmacopoeia, 37th Edition, General Chapter 941), relative intensities between two samples of the same material may vary considerably due to “preferred orientation” effects. Anisotropic materials adopting preferred orientation will lead to anisotropic distribution of properties such as modulus, strength, ductility, toughness, electrical conductivity, thermal expansion, etc., as described e.g. in Kocks U. F. et al. (Texture and Anisotropy: Preferred Orientations in Polycrystals and Their Effect on Materials Properties, Cambridge University Press, 2000). In XRPD but also Raman spectroscopy, preferred orientations cause a change in the intensity distribution. Preferred orientation effects are particularly pronounced with crystalline APIs of relatively large particle size.

[2] = Bulk density, tapped density and Carr index; conditions: spray dried amorphous ipatasertib monohydrochloride powder; monohydrochloride
[3] = Particle size distribution (d10, d50, d90) by laser diffraction; conditions: spray dried amorphous ipatasertib monohydrochloride powder
Source text: FIG. 6 illustrates particle size distribution of the material of Example 6C (Batch HQ00003) spray dried with two-feed nozzle as obtained by laser diffraction A bimodal particle size distribution is obvious. FIG. 9 illustrates particle size distribution of spray dried material with rotary wheel nozzle, i.e. of the material of batch BS1506SA03 of Example 13 (Table 20) obtained using a Malvern Mastersizer 2000 equipped with Hydro 2000S wet sample dispersion unit (Malvern Instruments Ltd, Malvern/UK). A monomodal particle size distribution is obvious. The terms “d50 value” (sometimes also referred to as “d(0.5)-value”) and “mass-median diameter” (or MMD) can be used interchangeably and denote the average particle size by mass, i.e. the average equivalent diameter of a particle, which is defined as the diameter where 50% (w) of the particles of the ensemble have a larger equivalent spherical diameter, and the other 50% (w) have a smaller equivalent spherical diameter. In analogy, the term “d10-value” denotes the particle diameter wherein 10% (w) of the particles of the ensemble have a smaller equivalent spherical diameter. In analogy, the term “d90-value” denotes the particle diameter wherein 90% (w) of the particles of the ensemble have a smaller equivalent spherical diameter.

Compound	Solid state / Polymorphy (X-Ray, XRPD) [1]	Bulk density [2] [gcm^−3]	Tapped density [2] [gcm^−3]	Particle size d10 [3] [μm]	Particle size d50 [3] [μm]	Particle size d90 [3] [μm]
CC(C)NC[C@@H](C(=O)N1CCN(c2ncnc3c2[C@H](C)C[C@H]3O)CC1)c1ccc(Cl)cc1 [Composition 130710450, ipatasertib monohydrochloride]	Amorphous*	0.42	0.60	14	40	79
CC(C)NC[C@@H](C(=O)N1CCN(c2ncnc3c2[C@H](C)C[C@H]3O)CC1)c1ccc(Cl)cc1 [Composition 130710451, ipatasertib monohydrochloride]	Amorphous*	0.48	0.61	17	45	88
CC(C)NC[C@@H](C(=O)N1CCN(c2ncnc3c2[C@H](C)C[C@H]3O)CC1)c1ccc(Cl)cc1 [Composition 130710452, ipatasertib monohydrochloride]	Amorphous*	0.32	0.47	8.4	21	42
CC(C)NC[C@@H](C(=O)N1CCN(c2ncnc3c2[C@H](C)C[C@H]3O)CC1)c1ccc(Cl)cc1 [Composition 130810453, ipatasertib monohydrochloride]	Amorphous*	0.30	0.45	6.6	20	58
CC(C)NC[C@@H](C(=O)N1CCN(c2ncnc3c2[C@H](C)C[C@H]3O)CC1)c1ccc(Cl)cc1 [Composition 130810454, ipatasertib monohydrochloride]	Amorphous*	0.47	0.61	12	36	72
CC(C)NC[C@@H](C(=O)N1CCN(c2ncnc3c2[C@H](C)C[C@H]3O)CC1)c1ccc(Cl)cc1 [Composition 140110401, ipatasertib monohydrochloride]	amorphous*	0.47	0.61	11.4	31	64
CC(C)NC[C@@H](C(=O)N1CCN(c2ncnc3c2[C@H](C)C[C@H]3O)CC1)c1ccc(Cl)cc1 [Composition 140110402, ipatasertib monohydrochloride]	amorphous*	0.45	0.60	7	20	46
CC(C)NC[C@@H](C(=O)N1CCN(c2ncnc3c2[C@H](C)C[C@H]3O)CC1)c1ccc(Cl)cc1 [Composition 140110403, ipatasertib monohydrochloride]	amorphous*	0.37	0.52	9.4	27	61
CC(C)NC[C@@H](C(=O)N1CCN(c2ncnc3c2[C@H](C)C[C@H]3O)CC1)c1ccc(Cl)cc1 [Composition 140110404, ipatasertib monohydrochloride]	amorphous*	0.49	0.63	12.5	47	108
CC(C)NC[C@@H](C(=O)N1CCN(c2ncnc3c2[C@H](C)C[C@H]3O)CC1)c1ccc(Cl)cc1 [Composition 140110405, ipatasertib monohydrochloride]	amorphous*	0.28	0.40	9.3	26	57
CC(C)NC[C@@H](C(=O)N1CCN(c2ncnc3c2[C@H](C)C[C@H]3O)CC1)c1ccc(Cl)cc1 [Composition 140110406, ipatasertib monohydrochloride]	amorphous*	0.41	0.54	10.2	26	53
CC(C)NC[C@@H](C(=O)N1CCN(c2ncnc3c2[C@H](C)C[C@H]3O)CC1)c1ccc(Cl)cc1 [Composition 140110407, ipatasertib monohydrochloride]	amorphous*	0.29	0.43	7.1	16	28
CC(C)NC[C@@H](C(=O)N1CCN(c2ncnc3c2[C@H](C)C[C@H]3O)CC1)c1ccc(Cl)cc1 [Composition 140110408, ipatasertib monohydrochloride]	amorphous*	0.34	0.50	9.3	26	58
CC(C)NC[C@@H](C(=O)N1CCN(c2ncnc3c2[C@H](C)C[C@H]3O)CC1)c1ccc(Cl)cc1 [Composition 140110409, ipatasertib monohydrochloride]	amorphous*	0.27	0.39	11.3	35	79
CC(C)NC[C@@H](C(=O)N1CCN(c2ncnc3c2[C@H](C)C[C@H]3O)CC1)c1ccc(Cl)cc1 [Composition 140110410, ipatasertib monohydrochloride]	amorphous*	0.18	0.30	8.1	23	50
CC(C)NC[C@@H](C(=O)N1CCN(c2ncnc3c2[C@H](C)C[C@H]3O)CC1)c1ccc(Cl)cc1 [Composition 140110411, ipatasertib monohydrochloride]	amorphous*	0.37	0.51	9.2	27	58
CC(C)NC[C@@H](C(=O)N1CCN(c2ncnc3c2[C@H](C)C[C@H]3O)CC1)c1ccc(Cl)cc1 [Composition 140210412, ipatasertib monohydrochloride]	amorphous*	0.47	0.60	13	46	94
CC(C)NC[C@@H](C(=O)N1CCN(c2ncnc3c2[C@H](C)C[C@H]3O)CC1)c1ccc(Cl)cc1 [Composition 140210413, ipatasertib monohydrochloride]	amorphous*	0.45	0.59	10	28	56
CC(C)NC[C@@H](C(=O)N1CCN(c2ncnc3c2[C@H](C)C[C@H]3O)CC1)c1ccc(Cl)cc1 [Composition 140210414, ipatasertib monohydrochloride]	amorphous*	0.48	0.57	18	53	109
